Read-outs that look alike come from different tables or passages of the source.
Columns and labels:
feline calicivirus = assay: Inactivation ability against infectivity of feline calicivirus (TCID50 on CRFK cells); assay type: cell-based; details: for inactivation ability against the feline calicivirus, potassium versus sodium oleate soap: Example 4, 0.35 M oleate soap
[1] = system: Influenza virus A/whistling swan/Shimane/499/83 (H5N3); assay type: cell-based, avian influenza virus; details: for effect on the avian influenza virus (ability to inactivate): Example 10, each potassium soap diluted to 0.035 M; for infection dose of the avian influenza virus reduced to / ability to inactivate: Example 9, diluted to 0.0035 mol/L with purified water; for ability to inactivate the avian influenza virus, potassium versus sodium oleate soap: Example 4, 0.35 M oleate soap tested as in Example 2
[2] = Example 8, sample No. 19 versus surface-active agents other than soap (Table 4, 10.32 %)
[3] = Example 9, diluted to 0.0035 mol/L with purified water

Sodium polyoxyethylene alkyl ether sulfate [compound 37]
cytotoxicity (CRFK cells): high cytotoxicity
cytotoxicity (MDCK (+) cells): high cytotoxicity
virus inactivation ability / antiviral activity (feline calicivirus) (feline calicivirus; [2]): low antiviral activity
virus inactivation ability / antiviral activity (avian influenza virus) [1, 2]: low antiviral activity

CCC=CCC=CCC=CCCCCCCCC(=O)[O-].[K+] [C18:3 (linolenate) soap]
effect on the avian influenza virus (ability to inactivate) [1]: weak

CCCCCCCC/C=C\CCCCCCCCOS(=O)(=O)[O-].[Na+] [sodium oleyl sulfate]
infection dose of the feline calicivirus reduced to / ability to inactivate (feline calicivirus): one-tenth or less
infection dose of the avian influenza virus reduced to / ability to inactivate [1]: one-tenth or less

CCCCCCCC/C=C\CCCCCCCC(=O)[O-].[Na+] [sodium oleate soap, sodium oleate]
inactivation ability against the feline calicivirus, potassium versus sodium oleate soap (feline calicivirus): no difference
ability to inactivate the avian influenza virus, potassium versus sodium oleate soap [1]: no difference

CCCCCCCC/C=C\CCCCCCCC(=O)N(C)CC(=O)O [oleoyl sarcosine]
infection dose of the feline calicivirus reduced to / ability to inactivate (feline calicivirus): could not be reduced
infection dose of the avian influenza virus reduced to / ability to inactivate [1]: about one-thousandth

CCCCC/C=C\C/C=C\CCCCCCCC(=O)[O-].[K+] [C18:2 (linoleate) soap]
effect on the avian influenza virus (ability to inactivate) [1]: excellent

Polyoxyethylene sorbitan monooleate
infection dose of the feline calicivirus reduced to / ability to inactivate (feline calicivirus; [3]): no ability to inactivate
infection dose of the avian influenza virus reduced to / ability to inactivate [1]: no ability to inactivate

CCCCCCCC/C=C\CCCCCCCC(=O)[O-].[K+] [potassium oleate soap, potassium oleate]
inactivation ability against the feline calicivirus, potassium versus sodium oleate soap (feline calicivirus): no difference
infection dose of the feline calicivirus reduced to / ability to inactivate (feline calicivirus; [3]): excellent antiviral activity
ability to inactivate the avian influenza virus, potassium versus sodium oleate soap [1]: no difference
infection dose of the avian influenza virus reduced to / ability to inactivate [1]: excellent antiviral activity
effect on the avian influenza virus (ability to inactivate) [1]: excellent
